Assay results: PMC4569013, “Massive Bioaccumulation and Self‐Assembly of Phenazine Compounds in Live Cells” (Advanced Science, 2015)

Key:
RAW264.7 macrophages [1] = test: Cell accumulation experiment, transmitted light microscopy of cellular staining pattern; type: cell-based; details: for Inferred uptake: inferred from staining pattern after 72 hour incubation; for Observed cellular staining pattern (Notes): live cells, 72 hour incubation, 5 × 10^−6 M (2.5 × 10^−6 M for I); for Staining in fixed cells: methanol-fixed cells incubated 72 h with compound (control); for Cellular staining relative to clofazimine: live macrophages, 72 h
Procedure: Cell Accumulation Experiments and Transmitted Light Microscopic Examination: […] After a 24 h incubation (37 °C, 5% CO2), cells were incubated with solution of clofazmine or its chemical derivatives (300 μL of 5 × 10^−6 m concentration; measured cell viability ranging from 85% to 97% for all compounds tested at this concentration; Figure 1) in DMEM (no phenol red; plus 1 × 10^−3 M sodium pyruvate and 5% FBS). For Compound “I,” 2.5 × 10^−6 M of compound solution in media was used for the RAW 264.7 macrophages incubation because of lower cell viability at higher concentrations (IC50 = (3.95 ± 0.11) × 10^−6 M). A solution of clofazmine or other chemical derivatives was made by a diluting stock solutions (2.5 × 10^−3 M in DMSO; 10 × 10^−3 M stock in DMSO were stored at −80 °C for further use) into DMEM with 5% FBS. […] The extracellular concentration of each compound in each well was maintained by daily replacement of the compound‐containing media. After 72 h of incubation with clofazmine or its derivatives, compound‐containing media were removed and cells were washed twice with media. Live cells in the chambered glasses were examined under inverted transmitted light microscopy (Nikon Eclipse Ti microscope) with a 40× objective and color camera. As a control experiment, fixed cells were also microscopically examined after incubation with the compounds. Cells were seeded on the chambered cover glasses at the density of 1.5 × 10^4 cells cm^−2 (RAW264.7 macrophages) or 2.5 × 10^4 cells cm^−2 (MDCK epithelial cells). After an overnight incubation (37 °C, 5% CO2), media was removed from the wells and cold methanol (−20 °C) was added to each well. After 30 s, remaining methanol was removed by washing with media with 5% FBS. Fixed cells were incubated (37 °C, 5% CO2) with clofazmine or derivatives (300 μL of 5 × 10^−6 M; 2.5 × 10^−6 M for I) in media with 5% FBS. After 72 h, fixed RAW264.7 or MDCK cells were washed with media and examined using the same transmitted microscopy conditions as the live cells.

MDCK epithelial cells [2] = test: Confocal fluorescence microscopy, intracellular localization of inclusions; type: cell-based, Canine; details: 5 × 10^−6 M, 72 h, live cells
Procedure: (§1) Confocal Fluorescent Microscopy: A Nikon A1 confocal microscope was used for further investigation of live cells incubated with chiral pairs of compounds (T and U) and the parent compound, P. Since crystals or vesicular forms containing chemicals inside the cells incubated with Compound P, T, or U were fluorescent when viewed with the TRITC filter sets, intracellular distribution of these compounds in RAW264.7 or MDCK cells were visualized using a Nikon A1 confocal microscopy (Nikon Instruments Inc., Melville, NY) equipped with diode‐based lasers and a Nikon Apo 60×/1.4 NA oil immersion lens. Briefly, RAW264.7 macrophages or MDCK epithelial cells were seeded in the 8‐well Nunc Lab‐Tek II chambered (#1.5) cover glasses (Thermo Scientific, Pittsburgh, PA) at a density of 8 × 10^3 cells cm^−2 (RAW264.7 cells) or 1.5 × 10^4 cells cm^−2 (MDCK cells) and allowed to adhere overnight (37 °C, 5% CO2). Then, 5 × 10^−6 M of Compound “P” or the related isomers, “T” or “U” in DMEM with 5% FBS (300 μL) was added to the cells and the cells were incubated for 72 h (37 °C, 5% CO2). For live cell imaging, after the removal of media, cells were washed with HBSS buffer twice. Hoechst 33342 (Invitrogen, Carlsbad, CA) was used for staining cell nuclei and FM 1‐43 (Molecular Probes T35356, Invitrogen) for the plasma membrane. Cells were incubated with 300 μL of 1:1 (v/v) dye mixtures of 5 μg mL^−1 Hoechst 33342 and 7 × 10^−6 M FM 1‐43 in HBSS for 15 min at room temperature. Without fixative, the confocal imaging of the live cells was performed using lasers for DAPI (excitation/emission wavelength: 405 nm/450 ± 25 nm), FITC (488 nm/525 ± 25 nm), and TRITC (561 nm/596 ± 25 nm) channels. Z‐stack images of the cells were captured along the Z‐axis (interval, 1 μm) in three fluorescence channels and analyzed by using the Nikon NIS‐Elements 3.2 confocal software (Nikon Instruments Inc., Melville, NY). […]

RAW264.7 macrophages [3] = test: as above; type: cell-based; details: 5 × 10^−6 M, 72 h, live cells
Procedure: as §1

MDCK epithelial cells [4] = test: Linear diattenuation anisotropy microscopy (LC-PolScope) of intracellular inclusions; type: cell-based, Canine; details: 72 h, compared with clofazimine
Procedure: (§2) The optical design was built on a Nikon Eclipse Ti microscope equipped with the liquid crystal universal compensator consisting of a linear polarizer and a pair of liquid crystal devices. The LC compensator was part of the transillumination path and was used to illuminate the specimen with monochromatic, linearly polarized light of varying polarization orientation. There was no polarization analyzer present in the imaging path. Quantitative intensity images were recorded by a charge‐coupled device camera and a desktop computer calculated the average transmittance, the differential transmittance and the polarization orientation leading to maximum transmittance for each optically resolved picture element (pixel). Acquisition and processing steps were controlled using OpenPolScope plugins for the open source imaging programs ImageJ and Micro‐Manager (MMStudio version 1.4.15). With the combination of hardware and software, polarized light images were acquired at high sensitivity and high spatial resolution for measuring linear diattenuation.
(§3) Linear Diattenuation Microscopy Data Acquisition and Analysis: After RAW264.7 macrophages or MDCK epithelial cells were incubated with the compound in the chambered cover glasses for 72 h, at the same time of performing transmitted microscopic examination, cell specimens were examined under linear diattenuation microscopy using the Nikon Eclipse Ti microscope with 40×/0.75 NA objective and monochromatic light of two different center wavelengths, 546 and 623 nm (passband 30 nm). In the OpenPolScope software, Pol‐Acquisition and Pol‐Analyzer plugins (version 2.0) were used to capture, process, and analyze the attenuation images. Before imaging the samples, the setup was calibrated using a specially prepared slide featuring four small pieces of linear polarization filters. The transmission axes of the filters were oriented in steps of 45° providing a means to calibrate the LC universal compensator settings. After the calibration, a sample slide was inserted and first a sequence of polarized light images of a clear, fully transmitting sample area was recorded, followed by an image sequence featuring the cells under investigation. The images of the clear area were used to determine instrument factors which were needed for computing the average and the polarization dependent loss in transmittance in cellular components visible in the second image.10
(§4) Linear diattenuation is a material property that can occur in materials such as crystals, in which the light absorbing molecules are arranged with a preferred orientation. The molecular alignment creates principal axes in the material denoting polarization directions for which light is maximally and minimally transmitted. Diattenuation is the difference between maximal (T max) and minimal (T min) transmittance, divided by their sum (Equation (1)): (1) Diattenuation=Tmax‐Tmin/Tmax+Tmin
(§5) To simultaneously measure the attenuation of many crystals with arbitrary orientations, we developed algorithms based on four specimen images, each recorded using light of a different polarization orientation: 0°, 45°, 90°, and 135°.10 The four raw images were used to calculate the average and differential transmittance and the orientation of maximum transmittance in every resolved image pixel. To isolate and analyze quantitative data of the objects (crystals), the anisotropy or maximum transmittance axis orientation image file opened in ImageJ was inverted (Ctrl + Shift + I) and thresholded using ImageJ's default automatic method (“Binary” → “Convert to Mask”). By using the ImageJ's algorithm, “Analyze Particles,” data of anisotropy or maximum transmittance axis orientation of objects in images could be obtained automatically. Diattenuation ratios were calculated by dividing anisotropy at 623 nm by that at 546 nm.

RAW264.7 macrophages [5] = test: as above; type: cell-based; details: 72 h, compared with clofazimine
Procedure: as §2, §3, §4, §5

RAW264.7 macrophages [6] = test: Cell associated mass measurements (bioaccumulation, pmole/cell); type: cell-based; details: 72 h incubation, normalized by number of cells
Procedure: Cell Associated Mass Measurements: […] After an overnight incubation (37 °C, 5% CO2), cells were incubated with 100 μL of the media (DMEM with 5% FBS) containing 5 × 10^−6 M clofazmine or its chemical derivatives (2.5 × 10^−6 M of Compound “I”). Media containing each compound was replaced every day during the 72 h incubation. After the incubation, media was removed and cells were washed with Hank's balanced salt solution (HBSS) buffer (No. 14025; Invitrogen) twice. RAW264.7 macrophage cells in buffer were scraped and MDCK epithelial cells were exposed to Trypsin‐EDTA solution for detachment from the plates for cell number counting and quantification of cell‐associated masses. After centrifugation (650 × g), supernatant was removed and cell pellets were resuspended in 0.1 M citric acid/0.1 M trisodium citrate buffer (pH 5) for cell counting as previously reported.7 Equal numbers of cells in 100 μL in buffer were transferred to 96 well plates and 100 μL of detergent (ATCC, 30‐1010K) was added into wells for cell lysis. Chemical absorbance from each well was measured by the UV–vis microplate reader (Synergy 2, BioTek Instruments, Winooski, VT) at 490 nm wavelength and cell‐associated mass of each compound was calculated by a standard curve generated separately using the same media and presented as pmole/cell by normalizing the amount of chemical in each cell population sample by the number of cells in each sample.

| SMILES | Inferred uptake (RAW264.7 macrophages [1]) | Observed cellular staining pattern (Notes) (RAW264.7 macrophages [1]) | Staining in fixed cells (RAW264.7 macrophages [1]) | Intracellular localization of compound (fluorescence, TRITC channel) (MDCK epithelial cells [2]) | Intracellular localization of compound (fluorescence, TRITC channel) (RAW264.7 macrophages [3]) | Cellular staining relative to clofazimine (RAW264.7 macrophages [1]) | Diattenuation anisotropy of intracellular inclusions (MDCK epithelial cells [4]) | Diattenuation anisotropy of intracellular inclusions (RAW264.7 macrophages [5]) | Accumulation in macrophages (RAW264.7 macrophages [6]) |
| --- | --- | --- | --- | --- | --- | --- | --- | --- | --- |
| CC(CN=c1cc2n(-c3ccc(Cl)cc3)c3ccccc3nc-2cc1Nc1ccc(Cl)cc1)c1ccccc1 (stereo not shown) [Compound T] | Moderate | Faint orange perinuclear vesicles are present in live cells | Staining not observed in fixed cells | localized at the periphery of the cell nuclei | localized at the periphery of the cell nuclei |  |  |  |  |
| Oc1ccc(CCN=c2cc3n(-c4ccc(Cl)cc4)c4ccccc4nc-3cc2Nc2ccc(Cl)cc2)cc1 [Q] | Excellent | Purple-black dense cytoplasmic inclusions in live cells | absent in fixed cells |  |  | more prominent staining patterns | higher diattenuation anisotropy | higher diattenuation anisotropy | greatest accumulation |
| C[C@H](N=c1cc2n(-c3ccc(Cl)cc3)c3ccccc3nc-2cc1Nc1ccc(Cl)cc1)c1ccccc1 [R] | Good | Orange-brown staining pattern associated with perinuclear cytoplasmic vesicles in live cells | No staining found in Fixed cells |  |  |  | did not yield a measurable, diattenuation anisotropy signal | did not yield a measurable, diattenuation anisotropy signal |  |
| CC(C)C(CO)N=c1cc2n(-c3ccc(Cl)cc3)c3ccccc3nc-2cc1Nc1ccc(Cl)cc1 (stereo not shown) [V] | Good | Brown crystal-like inclusions appeared in live cells | Staining not observed in fixed cells |  |  | prominent cellular staining | only in macrophages | even higher anisotropy | greatest accumulation |
| CC(C)[C@H](CO)N=c1cc2n(-c3ccc(Cl)cc3)c3ccccc3nc-2cc1Nc1ccc(Cl)cc1 [W] | Good | Brown crystal-like inclusions are shown in live cells | absent in fixed cells |  |  | prominent cellular staining | only in macrophages | even higher anisotropy | greatest accumulation |
